Measured values reported in ChEMBL document CHEMBL3885861, “Open TG-GATES”.

Species on record: Rattus norvegicus
Assay: Open TG-GATES - Regimen: Daily Repeat
Format: toxicity, organism-based, Sprague-Dawley
Set-up: regimen Daily Repeat, gender Male, age 6 weeks
Conditions: in vivo, po, route gavage; for Eos / Fbg / Hb / Ht / Lym / MCH / MCV / Mono / Neu / PT / Plat / RBC / Ret / WBC / APTT / Bas: tissue Blood; for KIDNEY_L / KIDNEY_R / KIDNEY_TOTAL: tissue Kidney; for LIVER: tissue Liver; for ALP / ALT / AST / BUN / CRE / Ca / Cl / DBIL / GLC / IP / K / LDH / Na / PL / RALB / TBIL / TC / TP / gamma-GTP: tissue Plasma
[1] = 100 mg/kg, 72 h, dose level Middle, time 3 day
[2] = 100 mg/kg, […], dose level Middle, time 7 day
[3] = 100 mg/kg, […], dose level Middle, time 14 day
[4] = 100 mg/kg, […], dose level Middle, time 28 day
[5] = 300 mg/kg, 72 h, dose level High, time 3 day
[6] = 300 mg/kg, […], dose level High, time 7 day
[7] = 300 mg/kg, […], dose level High, time 14 day
[8] = 300 mg/kg, […], dose level High, time 28 day

NC(=O)N1c2ccccc2C=Cc2ccccc21 [CARBAMAZEPINE]
Eos [1]: 1.2%
Fbg [1]: 224.6 mg/dL
Hb [1]: 13.6 g/dL
Ht [1]: 39.9%
Lym [1]: 79%
MCH [1]: 21.3 pg
MCV [1]: 62.4 fL
Mono [1]: 2.4%
Neu [1]: 16.4%
PT [1]: 11.9 s
Plat [1]: 125.3 x10_4/uL
RBC [1]: 638.8 x10_4/ul
Ret [1]: 4.9%
WBC [1]: 79.2 x10_2/uL
KIDNEY_L [1]: 1 g
KIDNEY_R [1]: 1 g
KIDNEY_TOTAL [1]: 2.1 g
LIVER [1]: 12.1 g
ALP [1]: 795 IU/L
ALT [1]: 39.6 IU/L
AST [1]: 67.2 IU/L
BUN [1]: 15.8 mg/dL
CRE [1]: 0.4 mg/dL
Ca [1]: 11.1 mg/dL
Cl [1]: 103.4 meq/L
DBIL [1]: 0.084 mg/dL
GLC [1]: 217.2 mg/dL
IP [1]: 7.9 mg/dL
K [1]: 3.5 meq/L
LDH [1]: 212.4 IU/L
Na [1]: 141.4 meq/L
PL [1]: 154.4 mg/dL
RALB [1]: 3.4 g/dL
TBIL [1]: 0.1 mg/dL
TC [1]: 80.6 mg/dL
TP [1]: 5.8 g/dL
gamma-GTP [1]: 0.8 IU/L
TERMINAL_BW [2]: 271.4 g
TERMINAL_BW [3]: 314.7 g
TERMINAL_BW [4]: 397.6 g
APTT [2]: 20.2 s
Bas [2]: 0%
Eos [2]: 1%
Fbg [2]: 229.8 mg/dL
Hb [2]: 13.3 g/dL
Ht [2]: 39.4%
Lym [2]: 85%
MCH [2]: 21.1 pg
MCV [2]: 62.5 fL
Mono [2]: 2.6%
Neu [2]: 10.8%
PT [2]: 11.6 s
Plat [2]: 134.8 x10_4/uL
RBC [2]: 630.8 x10_4/ul
Ret [2]: 5.1%
WBC [2]: 131.2 x10_2/uL
APTT [3]: 21.8 s
Bas [3]: 0%
Eos [3]: 0.6%
Fbg [3]: 213.4 mg/dL
Hb [3]: 14.4 g/dL
Ht [3]: 41.3%
Lym [3]: 80%
MCH [3]: 20.6 pg
MCV [3]: 59.1 fL
Mono [3]: 2%
Neu [3]: 16%
PT [3]: 12.4 s
Plat [3]: 122.9 x10_4/uL
RBC [3]: 698.6 x10_4/ul
Ret [3]: 3.8%
WBC [3]: 129.1 x10_2/uL
APTT [4]: 21.1 s
Bas [4]: 0%
Eos [4]: 1.2%
Fbg [4]: 222 mg/dL
Hb [4]: 15.7 g/dL
Ht [4]: 44.3%
Lym [4]: 80%
MCH [4]: 19.5 pg
MCV [4]: 55.1 fL
Mono [4]: 2.4%
Neu [4]: 15.4%
PT [4]: 12.8 s
Plat [4]: 105.9 x10_4/uL
RBC [4]: 804 x10_4/ul
Ret [4]: 2%
WBC [4]: 98.2 x10_2/uL
KIDNEY_L [2]: 1.2 g
KIDNEY_R [2]: 1.1 g
KIDNEY_TOTAL [2]: 2.3 g
KIDNEY_L [3]: 1.3 g
KIDNEY_R [3]: 1.3 g
KIDNEY_TOTAL [3]: 2.6 g
KIDNEY_L [4]: 1.6 g
KIDNEY_R [4]: 1.5 g
KIDNEY_TOTAL [4]: 3.1 g
LIVER [2]: 14.5 g
LIVER [3]: 14.8 g
LIVER [4]: 16.8 g
ALP [2]: 857.6 IU/L
ALT [2]: 34 IU/L
AST [2]: 63 IU/L
BUN [2]: 17 mg/dL
CRE [2]: 0.5 mg/dL
Ca [2]: 10.7 mg/dL
Cl [2]: 102.2 meq/L
DBIL [2]: 0.1 mg/dL
GLC [2]: 207.6 mg/dL
IP [2]: 7.3 mg/dL
K [2]: 3.6 meq/L
LDH [2]: 233.2 IU/L
Na [2]: 141.2 meq/L
PL [2]: 175 mg/dL
RALB [2]: 3.5 g/dL
TBIL [2]: 0.1 mg/dL
TC [2]: 93.4 mg/dL
TP [2]: 5.9 g/dL
gamma-GTP [2]: 1 IU/L
ALP [3]: 733.4 IU/L
ALT [3]: 37.6 IU/L
AST [3]: 64.6 IU/L
BUN [3]: 16.5 mg/dL
CRE [3]: 0.5 mg/dL
Ca [3]: 10.6 mg/dL
Cl [3]: 101.6 meq/L
DBIL [3]: 0.1 mg/dL
GLC [3]: 205.4 mg/dL
IP [3]: 7.5 mg/dL
K [3]: 3.7 meq/L
LDH [3]: 203.2 IU/L
Na [3]: 141.4 meq/L
PL [3]: 161.2 mg/dL
RALB [3]: 3.4 g/dL
TBIL [3]: 0.2 mg/dL
TC [3]: 84.4 mg/dL
TP [3]: 5.9 g/dL
gamma-GTP [3]: 1.2 IU/L
ALP [4]: 641.4 IU/L
ALT [4]: 41.2 IU/L
AST [4]: 62.2 IU/L
BUN [4]: 17.4 mg/dL
CRE [4]: 0.4 mg/dL
Ca [4]: 10.2 mg/dL
Cl [4]: 101.8 meq/L
DBIL [4]: 0.092 mg/dL
GLC [4]: 213.8 mg/dL
IP [4]: 7 mg/dL
K [4]: 3.6 meq/L
LDH [4]: 138.6 IU/L
Na [4]: 141.4 meq/L
PL [4]: 158.2 mg/dL
RALB [4]: 3.5 g/dL
TBIL [4]: 0.1 mg/dL
TP [4]: 6.2 g/dL
gamma-GTP [4]: 0.6 IU/L
TERMINAL_BW [5]: 224.7 g
APTT [5]: 20.4 s
Bas [5]: 0%
Eos [5]: 1.2%
Fbg [5]: 203 mg/dL
Hb [5]: 13.7 g/dL
Ht [5]: 40.1%
Lym [5]: 83.6%
MCH [5]: 20.9 pg
MCV [5]: 61 fL
Mono [5]: 2.6%
Neu [5]: 11.4%
PT [5]: 11.8 s
Plat [5]: 131.3 x10_4/uL
RBC [5]: 657.8 x10_4/ul
Ret [5]: 3.6%
WBC [5]: 92.4 x10_2/uL
KIDNEY_L [5]: 1.1 g
KIDNEY_R [5]: 1 g
KIDNEY_TOTAL [5]: 2.1 g
LIVER [5]: 13.1 g
ALP [5]: 978.4 IU/L
ALT [5]: 40.2 IU/L
AST [5]: 57.2 IU/L
BUN [5]: 14 mg/dL
CRE [5]: 0.4 mg/dL
Ca [5]: 10.9 mg/dL
Cl [5]: 103.2 meq/L
DBIL [5]: 0.08 mg/dL
GLC [5]: 199.4 mg/dL
IP [5]: 6.8 mg/dL
K [5]: 3.4 meq/L
LDH [5]: 217.4 IU/L
Na [5]: 140.6 meq/L
PL [5]: 150.4 mg/dL
RALB [5]: 3.4 g/dL
TBIL [5]: 0.1 mg/dL
TC [5]: 79.2 mg/dL
TP [5]: 5.6 g/dL
gamma-GTP [5]: 1.2 IU/L
TERMINAL_BW [6]: 253.9 g
TERMINAL_BW [7]: 309.3 g
TERMINAL_BW [8]: 374.6 g
APTT [6]: 21.5 s
Bas [6]: 0%
Eos [6]: 0.6%
Fbg [6]: 224.6 mg/dL
Hb [6]: 13.1 g/dL
Ht [6]: 38.8%
Lym [6]: 79.8%
MCH [6]: 20.5 pg
MCV [6]: 60.5 fL
Mono [6]: 2.4%
Neu [6]: 15.8%
PT [6]: 11.9 s
Plat [6]: 130.9 x10_4/uL
RBC [6]: 641.2 x10_4/ul
Ret [6]: 4.1%
WBC [6]: 127.4 x10_2/uL
APTT [7]: 22.3 s
Bas [7]: 0%
Eos [7]: 0.4%
Fbg [7]: 209.2 mg/dL
Hb [7]: 14.2 g/dL
Ht [7]: 41.2%
Lym [7]: 82.2%
MCH [7]: 20.6 pg
MCV [7]: 59.8 fL
Mono [7]: 2.4%
Neu [7]: 13.6%
PT [7]: 12.2 s
Plat [7]: 128.7 x10_4/uL
RBC [7]: 689.4 x10_4/ul
Ret [7]: 4.7%
WBC [7]: 149.2 x10_2/uL
APTT [8]: 22.9 s
Bas [8]: 0%
Eos [8]: 1%
Fbg [8]: 225.4 mg/dL
Hb [8]: 15.2 g/dL
Ht [8]: 43.4%
Lym [8]: 87.2%
MCH [8]: 19.6 pg
MCV [8]: 56 fL
Mono [8]: 2.2%
Neu [8]: 8.8%
PT [8]: 12.2 s
Plat [8]: 106.2 x10_4/uL
RBC [8]: 776.2 x10_4/ul
Ret [8]: 2.1%
WBC [8]: 142.7 x10_2/uL
KIDNEY_L [6]: 1.2 g
KIDNEY_R [6]: 1.1 g
KIDNEY_TOTAL [6]: 2.3 g
KIDNEY_L [7]: 1.3 g
KIDNEY_R [7]: 1.3 g
KIDNEY_TOTAL [7]: 2.7 g
KIDNEY_L [8]: 1.4 g
KIDNEY_R [8]: 1.4 g
KIDNEY_TOTAL [8]: 2.8 g
LIVER [6]: 14.2 g
LIVER [7]: 17.8 g
LIVER [8]: 19.5 g
ALP [6]: 803.4 IU/L
ALT [6]: 41.6 IU/L
AST [6]: 64.8 IU/L
BUN [6]: 15.4 mg/dL
CRE [6]: 0.4 mg/dL
Ca [6]: 10.7 mg/dL
Cl [6]: 101.8 meq/L
DBIL [6]: 0.098 mg/dL
GLC [6]: 212.6 mg/dL
IP [6]: 7 mg/dL
K [6]: 3.9 meq/L
LDH [6]: 261.2 IU/L
Na [6]: 139.6 meq/L
PL [6]: 174.4 mg/dL
RALB [6]: 3.6 g/dL
TBIL [6]: 0.1 mg/dL
TC [6]: 91.2 mg/dL
TP [6]: 6.1 g/dL
gamma-GTP [6]: 1.4 IU/L
ALP [7]: 774.4 IU/L
ALT [7]: 38.6 IU/L
AST [7]: 62.8 IU/L
BUN [7]: 17.5 mg/dL
CRE [7]: 0.5 mg/dL
Ca [7]: 11 mg/dL
Cl [7]: 101 meq/L
DBIL [7]: 0.1 mg/dL
GLC [7]: 193.4 mg/dL
IP [7]: 7.2 mg/dL
K [7]: 3.9 meq/L
LDH [7]: 192 IU/L
Na [7]: 140.8 meq/L
PL [7]: 170.4 mg/dL
RALB [7]: 3.5 g/dL
TBIL [7]: 0.2 mg/dL
TC [7]: 89 mg/dL
TP [7]: 6.4 g/dL
gamma-GTP [7]: 0.6 IU/L
ALP [8]: 555 IU/L
ALT [8]: 39.8 IU/L
AST [8]: 55 IU/L
BUN [8]: 20.4 mg/dL
CRE [8]: 0.5 mg/dL
Ca [8]: 10.6 mg/dL
Cl [8]: 101.4 meq/L
DBIL [8]: 0.09 mg/dL
GLC [8]: 226 mg/dL
IP [8]: 6.4 mg/dL
K [8]: 3.6 meq/L
LDH [8]: 218.2 IU/L
Na [8]: 140.6 meq/L
PL [8]: 180.8 mg/dL
RALB [8]: 3.7 g/dL
TBIL [8]: 0.1 mg/dL
TC [8]: 93.8 mg/dL
TP [8]: 6.5 g/dL
gamma-GTP [8]: 1.2 IU/L
